Laboratory results from the RepoRT retention time repository (doi:10.1021/acs.analchem.2c02893).

Key:
Settings in all cases: stereoisomer not certain
[1] = RP, Thermo Scientific Acclaim RSLC 120 C18, 100 × 2.1 mm, 2.2 µm, 30 °C, 0.2 mL/min, estimated dead time 1.1 min; A: water + 0.1% formic acid, pH 2.6; B: methanol + 0.1% formic acid, pH 2.6; gradient (min/%B) 0/10 4/50 17/95 25/95 25.1/10 30/10
[2] = RP, Waters ACQUITY UPLC BEH C18, 100 × 2.1 mm, 1.7 µm, 30 °C, 0.35 mL/min, estimated dead time 0.63 min; A: water + 0.01% formic acid + 5 mM ammonium formate, pH 3.71; B: acetonitrile + 0.01% formic acid, pH 3.71; gradient (min/%B) 0/10 3/10 22/100 30/100 30.1/10 40/10
[3] = RP, Waters ACQUITY UPLC BEH C18, 100 × 2.1 mm, 1.7 µm, 35 °C, 0.35 mL/min, estimated dead time 0.63 min; A: water + 0.01% formic acid + 5 mM ammonium formate, pH 3.71; B: acetonitrile + 0.01% formic acid, pH 3.71; gradient (min/%B) 0/5 0.5/5 16/95 16.1/99 19/99 19.1/5 21/5
[4] = RP, Thermo Scientific Acclaim RSLC 120 C18, 100 × 2.1 mm, 2.2 µm, 30 °C, 0.2 mL/min, estimated dead time 1.1 min; A: 90% water + 10% methanol + 0.01% formic acid + 5 mM ammonium formate, pH 3.61; B: methanol + 0.01% formic acid + 5 mM ammonium formate, pH 3.61; gradient (min/%B) 0/1 1/1 2/39 13/99.9 15/99.9 15.1/1 20.1/1

Compound | LC retention time [1] | LC retention time [2] | LC retention time [3] | LC retention time [4]
CCNCC(=O)Nc1c(C)cccc1C [Lidocaine-Nor] | 3.97 min | 3.59 min | 3.56 min | 4.33 min
COc1cc(Cc2cnc(N)nc2N)cc(OC)c1OC [Trimethoprim] | 3.86 min | 4.48 min | 3.78 min | 4.06 min
CC(N)Cc1ccccc1 (centres undefined) [Amphetamine] | 3.86 min | 2.99 min | 3.28 min | 4.16 min
COc1cccc(C2(O)CCCCC2CN(C)C)c1 (centres undefined) [Tramadol] | 4.86 min | 6.56 min | 4.79 min | 4.88 min
CCSCc1ccccc1OC(=O)NC [Ethiofencarb] | 9.05 min | 10.7 min | 8.02 min | 7.7 min
CCN(CC)C(=O)Nc1ccc(OCC(O)CNC(C)(C)C)c(C(C)=O)c1 (centres undefined) [Celiprolol] | 5.29 min | 7.46 min | 5.34 min | 5.24 min
